Results reported in patent US9622997B2, “Methods for treating insomnia” (Lynn Health Science Institute, Inc., priority 2012, dated 2017).
Marks after values point to notes of the source that are not given here.

Key:
[1] = baclofen vs. placebo; cited from earlier work
[2] = system: normal participants; conditions: acute dose 40 mg; cited from earlier work
[3] = system: healthy subjects subjected to a transient insomnia protocol; assay: Transient insomnia protocol (2 hour phase advance), double blind cross-over, overnight PSG and morning self-report; format: in vivo, human
Text: Twenty-four (24) healthy subjects aged 18-65 years (inclusive) with no insomnia were recruited for this study. […] Individuals were also excluded if they had excessive daytime sleepiness indicated by an Epworth Sleepiness Score (ESS) of >9 or a chronic sleep disturbance indicated by a Pittsburgh Sleep Questionnaire Inventory (PSQI) score of >5. Shift workers or subjects with irregular sleep schedules were excluded. Women of child-bearing potential who used medically acceptable methods of contraception were allowed to participate. Subjects were excluded if they had any of the following: BMI≧30; symptoms of gastroesophageal reflux such as heartburn on a regular basis; history of allergic reaction or hyper-sensitivity to benzodiazepines or CNS depressants; or evidence of any clinically significant medical abnormality or chronic disease indicated on laboratory screen or physical exam. Subjects were also excluded if they had any of the following: a history of alcohol or drug abuse; consume >2 alcoholic beverages on a single day and >14 beverages weekly; or >5 cigarettes a day and could not forego smoking for up to 14 hours while in the sleep lab. Participants abstained from over-the-counter medications within 7 days of the polysomnographic (hereinafter “PSG”) evaluation (except accepted birth control medication, NSAIDS/acetaminophen for infrequent pain not considered clinically significant). Participants abstained from alcohol for 24 hours and caffeine for 6 hours prior to each PSG evaluation. Eligible participants were required to report normal sleep patterns during the week before each PSG defined as a bedtime between 21:00 and 24:00 on at least 5 of 7 consecutive nights, with reported sleep duration between 7-9 hours, and no more than 2 naps a week.
The present study was a single-site study approved by Aspire Institutional Review Board. The study design was a double blind cross-over study. Subjects gave written informed consent prior to any study-related procedures. The study consisted of a screening session and two overnight PSGs. The treatments consisted of baclofen 20 mg and placebo. The screening session consisted of a medical screening visit to determine eligibility and safety for each subject. Eligible subjects were randomized into two treatment sequences based on a random permutation algorithm. One treatment sequence received baclofen 20 mg on the night of the first PSG, then placebo on the night of the second PSG. The other treatment sequence received placebo on the night of the first PSG, then baclofen 20 mg on the night of the second PSG. Subjects were given a 7 day sleep diary to complete immediately prior to the first sleep study. Subjects were given a second 7 day sleep diary to complete immediately prior to the second sleep study. Lights out was determined as two hours earlier than the subject's median habitual bedtime indicated in the diary prior to each PSG. Study drug (baclofen 20 mg or placebo) was administered 90 minutes prior to lights out.
On the PSG nights, respiratory effort and airflow, oxygen saturation, leg and chin EMGs were recorded in addition to the routine PSG measures to exclude subjects with sleep-related breathing disorders and periodic limb movement disorder. […] PSG measures consisted of the following: wake after sleep onset (WASO), total sleep time (TST), sleep onset latency (SOL), sleep efficiency (SE), percent sleep stage 1, percent sleep stage 2, percent sleep stages 3 and 4 combined, percent sleep REM. Self-report measures consisted of the following: subjective TST (sTST), subjective SOL (sSOL), subjective number of awakenings from sleep (sNAS), subjective sleep quality (sSQ). All PSGs were analyzed by one of the authors blinded to the treatment groups. […]

[4] = PSG measure, percentage of TST, baclofen 20 mg
[5] = PSG measure, baclofen 20 mg 90 minutes prior to lights out, n=20
[6] = baclofen 20 mg vs placebo, not significant
[7] = baclofen 20 mg vs placebo, p < 0.01
[8] = baclofen 20 mg vs placebo, p < 0.05
[9] = self-report, morning questionnaire, baclofen 20 mg

NCC(CC(=O)O)c1ccc(Cl)cc1 (stereo not drawn) [Baclofen, 4-amino-3-(4-chlorophenyl)-butanoic acid]
decrease in reflux events in other studies [1]: ~40% | ACT [2]: no significant change | postprandial reflux events [2]: significant reduction | REM [3, 4]: 24.1 ± 1.3% | Stage 1 [3, 4]: 2.3 ± 0.3% | Stage 2 [3, 4]: 58.9 ± 2.0% | Stage 3/4 [3, 4]: 14.7 ± 1.4% | SE [3, 5]: 90.6 ± 1.2% | SOL [3, 5]: 19.4 ± 3.8 min | TST [3, 5]: 435.4 ± 5.8 min | WASO [3, 5]: 25.6 ± 4.0 min | SOL Absolute Change [3, 6]: -0.4 min | sSOL Absolute Change [3, 6]: -1.0 min | sTST Absolute Change [3, 6]: 0.3 h | REM Absolute Change ([3]; baclofen 20 mg vs placebo, not significant (p=0.067)): 3.5% | Stage 2 Absolute Change ([3]; baclofen 20 mg vs placebo, not significant (p=0.092)): −3.9% | Stage 1 Absolute Change ([3]; baclofen 20 mg vs placebo, p < 0.001): −1.8*** % | TST Absolute Change [3, 7]: 27.7** min | sNAS Absolute Change [3, 7]: −1.3** # | Stage 3/4 Absolute Change [3, 8]: 2.7* % | WASO Absolute Change [3, 8]: −28.4* min | sSQ Absolute Change [3, 8]: −0.5* scale 1-4 | baclofen data better than zolpidem (decrease in WASO, increase in SE) ([3]; baclofen 20 mg vs zolpidem 10 mg (WASO 9.4 min, SE 3.7%), 2 hr phase advance): 2-4 fold | sSOL [3, 9]: 25.0 ± 4.1 min | sTST [3, 9]: 7.1 ± 0.2 h | sNAS ([3]; self-report, number of awakenings, baclofen 20 mg): 2.4 ± 0.4 | sSQ ([3]; self-report, 1 = good, 2 = average, 3 = below average, 4 = poor, baclofen 20 mg): 1.9 ± 0.2 scale 1-4 | TST ([3]; ↑ increase compared to placebo, 20 mg, 2 hour phase-advance, current study): ↑ 27.7 min | SOL ([3]; ↓ decrease compared to placebo, NS, 20 mg, 2 hour phase-advance, current study): ↓ 0.4^NS min | wake after sleep onset (WASO), change vs placebo ([3]; ↓ decrease compared to placebo, 20 mg, 2 hour phase-advance, current study): ↓ 28.3 min
